Assay results published in patent publication US20230322846A9, “NEUROACTIVE STEROIDS AND THEIR METHODS OF USE” (SAGE THERAPEUTICS, INC., priority 2018, published 2023).
pIC50: −log10 of the molar value.

Molecular target: [35S]-TBPS binding, rat brain cortical membranes
Test: Steroid inhibition of [35S]-TBPS binding
Conditions: 3 nM [35S]-TBPS, in the presence of 5 mM GABA
How it was run: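 Rat cortical P2 membranes incubated 90 min at room temperature with 3 nM [35S]-TBPS, […] and test compound (0.5% DMSO final) in NaCl/Na–K phosphate pH 7.4; nonspecific binding with […]. Filter-bound radioactivity counted; IC50 and Imax from nonlinear fits, mean ± SEM.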

SMILES | pIC50
CCC[C@@]1(O)CC[C@H]2[C@@H](CC[C@@H]3[C@@H]2CC[C@]2(C)[C@@H]([C@H](C)Cn4cc(C#N)cn4)CC[C@@H]32)C1 [Example 350, 1-((S)-2-((3R,5S,8R,9R,10S,13S,14S,17R)-3-hydroxy-13-methyl-3-propylhexadecahydro-1H-cyclopenta[a]phenanthren-17-yl)propyl)-1H-pyrazole-4-carbonitrile] | ≤ 5.00
COC[C@@]1(O)CC[C@@]2(C)[C@H](CC[C@@H]3[C@@H]2CC[C@@]2(C)[C@H]3CC[C@]2(O)[C@@H](C)Cn2cc(C#N)cn2)C1 [Example 351, 1-((S)-2-((3R,5R,8R,9S,10S,13S,14S,17S)-3,17-dihydroxy-3-(methoxymethyl)-10,13-dimethylhexadecahydro-1H-cyclopenta[a]phenanthren-17-yl)propyl)-1H-pyrazole-4-carbonitrile] | 5.00 to 6.00
COC[C@@]1(O)CC[C@@]2(C)[C@H](CC[C@@H]3[C@@H]2CC[C@@]2(C)[C@H]3CC[C@]2(O)[C@H](C)Cn2cc(C#N)cn2)C1 [Example 352, 1-((R)-2-((3R,5R,8R,9S,10S,13S,14S,17S)-3,17-dihydroxy-3-(methoxymethyl)-10,13-dimethylhexadecahydro-1H-cyclopenta[a]phenanthren-17-yl)propyl)-1H-pyrazole-4-carbonitrile] | 5.00 to 6.00
COC[C@@]1(O)CC[C@H]2[C@H](CC[C@@H]3[C@@H]2CC[C@@]2(C)[C@H]3CC[C@]2(O)[C@H](C)Cn2cc(C#N)cn2)C1 [Example 353] | 5.00 to 6.00
COC[C@@]1(O)CC[C@H]2[C@H](CC[C@@H]3[C@@H]2CC[C@@]2(C)[C@H]3CC[C@]2(O)[C@@H](C)Cn2cc(C#N)cn2)C1 [Example 354] | 5.00 to 6.00
C[C@@]1(O)CC[C@H]2[C@H](CC[C@@H]3[C@@H]2CC[C@]2(C)[C@@H]([C@H](C#N)Cn4cc(C#N)cn4)CC[C@@H]32)C1 [Example 355, 1-((S)-2-cyano-2-((3R,5R,8R,9R,10S,13S,14S,17R)-3-hydroxy-3,13-dimethylhexadecahydro-1H-cyclopenta[a]phenanthren-17-yl)ethyl)-1H-pyrazole-4-carbonitrile] | > 7.00
C[C@@]1(O)CC[C@H]2[C@H](CC[C@@H]3[C@@H]2CC[C@]2(C)[C@@H]([C@@H](C#N)Cn4cc(C#N)cn4)CC[C@@H]32)C1 [Example 356, 1-((R)-2-cyano-2-((3R,5R,8R,9R,10S,13S,14S,17R)-3-hydroxy-3,13-dimethylhexadecahydro-1H-cyclopenta[a]phenanthren-17-yl)ethyl)-1H-pyrazole-4-carbonitrile] | > 7.00
CC[C@@]1(O)CC[C@@]2(C)[C@@H](CC[C@@H]3[C@@H]2CC[C@]2(C)[C@@H]([C@@H](C)Cn4nnc(C)n4)CC[C@@H]32)C1 [Example 359, (3R,5S,8R,9S,10S,13S,14S,17R)-3-ethyl-10,13-dimethyl-17-((R)-1-(5-methyl-2H-tetrazol-2-yl)propan-2-yl)hexadecahydro-1H-cyclopenta[a]phenanthren-3-ol] | ≤ 5.00
CC[C@@]1(O)CC[C@@]2(C)[C@@H](CC[C@@H]3[C@@H]2CC[C@]2(C)[C@@H]([C@H](C)Cn4nnc(C)n4)CC[C@@H]32)C1 [Example 360, (3R,5S,8R,9S,10S,13S,14S,17R)-3-ethyl-10,13-dimethyl-17-((S)-1-(5-methyl-2H-tetrazol-2-yl)propan-2-yl)hexadecahydro-1H-cyclopenta[a]phenanthren-3-ol] | 5.00 to 6.00
CCC[C@@]1(O)CC[C@H]2[C@H](CC[C@@H]3[C@@H]2CC[C@]2(C)[C@@H]([C@@H](C)Cn4cc(C#N)cn4)[C@H](O)C[C@@H]32)C1 [Example 362, 1-((R)-2-((3R,5R,8R,9R,10S,13S,14S,16R,17R)-3,16-dihydroxy-13-methyl-3-propylhexadecahydro-1H-cyclopenta[a]phenanthren-17-yl)propyl)-1H-pyrazole-4-carbonitrile] | 5.00 to 6.00
CCC[C@@]1(O)CC[C@H]2[C@H](CC[C@@H]3[C@@H]2CC[C@]2(C)[C@@H]([C@@H](C)Cn4nnc(C)n4)C(=O)C[C@@H]32)C1 [Example 364, (3R,5R,8R,9R,10S,13S,14S,17R)-3-hydroxy-13-methyl-17-((R)-1-(5-methyl-2H-tetrazol-2-yl)propan-2-yl)-3-propyltetradecahydro-1H-cyclopenta[a]phenanthren-16(2H)-one] | 6.00 to 7.00
CCC[C@@]1(O)CC[C@H]2[C@H](CC[C@@H]3[C@@H]2CC[C@]2(C)[C@@H]([C@H](C)Cc4ccc(C#N)nc4)CC[C@@H]32)C1 [Example 400, 5-((R)-2-((3R,5R,8R,9R,10S,13R,14S,17R)-3-hydroxy-13-methyl-3-propylhexadecahydro-1H-cyclopenta[a]phenanthren-17-yl)propyl)picolinonitrile] | > 7.00
CCOC[C@@]1(O)CC[C@H]2[C@H](CC[C@@H]3[C@@H]2CC[C@]2(C)[C@@H]([C@@H](C)Cc4cccc(C#N)c4)CC[C@@H]32)C1 [Example 402, 3-((S)-2-((3R,5R,8R,9R,10S,13R,14S,17R)-3-(ethoxymethyl)-3-hydroxy-13-methylhexadecahydro-1H-cyclopenta[a]phenanthren-17-yl)propyl)benzonitrile] | > 7.00
CCOC[C@@]1(O)CC[C@H]2[C@H](CC[C@@H]3[C@@H]2CC[C@]2(C)[C@@H]([C@H](C)Cc4cccc(C#N)c4)CC[C@@H]32)C1 [Example 403, 3-((R)-2-((3R,5R,8R,9R,10S,13R,14S,17R)-3-(ethoxymethyl)-3-hydroxy-13-methylhexadecahydro-1H-cyclopenta[a]phenanthren-17-yl)propyl)benzonitrile] | 6.00 to 7.00
COC[C@@]1(O)CC[C@H]2[C@H](CC[C@@H]3[C@@H]2CC[C@]2(C)[C@@H]([C@@H](C)Cc4ccc(C#N)nc4)CC[C@@H]32)C1 [Example 404, 5-((S)-2-((3R,5R,8R,9R,10S,13R,14S,17R)-3-hydroxy-3-(methoxymethyl)-13-methylhexadecahydro-1H-cyclopenta[a]phenanthren-17-yl)propyl)picolinonitrile] | > 7.00
CCC[C@@]1(O)CC[C@H]2[C@H](CC[C@@H]3[C@@H]2CC[C@]2(C)[C@@H]([C@@H](C)Cc4ccc(C(F)(F)F)nc4)CC[C@@H]32)C1 [Example 410] | 6.00 to 7.00

SMILES | pIC50
CCC[C@@]1(O)CC[C@H]2[C@H](CC[C@@H]3[C@@H]2CC[C@]2(C)[C@@H]([C@H](C)Cc4ccc(C(F)(F)F)nc4)CC[C@@H]32)C1 [Example 411] | > 7.00
CCOC[C@@]1(O)CC[C@H]2[C@H](CC[C@@H]3[C@@H]2CC[C@]2(C)[C@@H]([C@H](C)Cc4cccc(C#N)n4)CC[C@@H]32)C1 [Example 412] | 6.00 to 7.00
CCOC[C@@]1(O)CC[C@H]2[C@H](CC[C@@H]3[C@@H]2CC[C@]2(C)[C@@H]([C@@H](C)Cc4ccc(C)nc4C#N)CC[C@@H]32)C1 [Example 414] | > 7.00
CCOC[C@@]1(O)CC[C@H]2[C@H](CC[C@@H]3[C@@H]2CC[C@]2(C)[C@@H]([C@H](C)Cc4ccc(C)nc4C#N)CC[C@@H]32)C1 [Example 415] | > 7.00
CCC[C@@]1(O)CC[C@H]2[C@H](CC[C@@H]3[C@@H]2CC[C@]2(C)[C@@H]([C@H](C)Cc4cnc(C)cn4)CC[C@@H]32)C1 [Example 418] | 5.00 to 6.00
COC[C@@]1(O)CC[C@H]2[C@H](CC[C@@H]3[C@@H]2CC[C@]2(C)[C@@H]([C@H](C)Cc4ccc(C(F)(F)F)nc4)CC[C@@H]32)C1 [Example 421] | 6.00 to 7.00
COC[C@@]1(O)CC[C@H]2[C@H](CC[C@@H]3[C@@H]2CC[C@]2(C)[C@@H]([C@@H](C)Cc4cnc(C)cn4)CC[C@@H]32)C1 [Example 422] | > 7.00
COC[C@@]1(O)CC[C@H]2[C@H](CC[C@@H]3[C@@H]2CC[C@]2(C)[C@@H]([C@H](C)Cc4cnc(C)cn4)CC[C@@H]32)C1 [Example 423] | 6.00 to 7.00
COC[C@@]1(O)CC[C@H]2[C@H](CC[C@@H]3[C@@H]2CC[C@]2(C)[C@@H]([C@@H](C)Cc4nc(C)ccc4Cl)CC[C@@H]32)C1 [Example 424] | > 7.00
COC[C@@]1(O)CC[C@H]2[C@H](CC[C@@H]3[C@@H]2CC[C@]2(C)[C@@H]([C@H](C)Cc4nc(C)ccc4Cl)CC[C@@H]32)C1 [Example 425] | 5.00 to 6.00
C[C@H](Cc1ccc(C(F)(F)F)nc1)[C@H]1CC[C@H]2[C@@H]3CC[C@@H]4C[C@](C)(O)CC[C@]4(C)[C@H]3CC[C@]12C [Example 426] | 6.00 to 7.00
C[C@@H](Cc1ccc(C(F)(F)F)nc1)[C@H]1CC[C@H]2[C@@H]3CC[C@@H]4C[C@](C)(O)CC[C@]4(C)[C@H]3CC[C@]12C [Example 427] | > 7.00
C[C@@H](Cc1ncc(CO)s1)[C@H]1CC[C@H]2[C@@H]3CC[C@@H]4C[C@](C)(O)CC[C@@H]4[C@H]3CC[C@]12C [Example 428] | > 7.00
C[C@H](Cc1ncc(CO)s1)[C@H]1CC[C@H]2[C@@H]3CC[C@@H]4C[C@](C)(O)CC[C@@H]4[C@H]3CC[C@]12C [Example 429] | > 7.00
Cc1cnc(C[C@@H](C)[C@H]2CC[C@H]3[C@@H]4CC[C@@H]5C[C@](C)(O)CC[C@@H]5[C@H]4CC[C@]23C)s1 [Example 431] | 6.00 to 7.00
COc1cncc(C[C@H](C)[C@H]2CC[C@H]3[C@@H]4CC[C@@H]5C[C@](C)(O)CC[C@@H]5[C@H]4CC[C@]23C)c1 [Example 432] | > 7.00
